From patent publication US20200315923A1, “DESINFECTANT BONE AND DENTAL FILLER MATERIALS COMPRISING LIPOSOMES” (Cementic, priority 2017, published 2020)

What was measured:
Enterococcus faecalis = test: Agarose gel diffusion test; type: cell-based; settings: agar diffusion, this experiment
Procedure: An adaptation of the agarose gel diffusion test was tested and validated for dental cements. The analysis was performed using the plaque assay. In the case of a test on samples of various concentrations, the ICM can be estimated using a software available on an on-line platform developed by Bonev in 2008 (http://agardiffusion.com) (Principles of assessing bacterial susceptibility to antibiotics using the agar diffusion method J. Antimic. Chemoth., 61 12951301).
For this experiment, liposomes and disinfecting fillers were produced as described in 8.1 and 7.6 a.
3 mm circular wells were punched using a disposable biopsy needle into Mueller-Hinton agar. The agar was then homogeneously inoculated with 100 μL of a solution of Enterococcus faecalis adjusted to a concentration of 0.5 MacFarland. Bio Root™ cement was then prepared (500 mg powder+250 μL liquid+/−35 μL CEM CHX 0918-001). The wells were then filled with cement using a pipetman for viscous solutions. The agar plates were then incubated at 37° C. under aerobic conditions for 24 hours. The area of growth inhibition was then measured using a ruler (FIG. 26).
To measure the effect of the prolonged release of antimicrobial agent, agar plates were prepared as above but without being inoculated with E. faecalis. […] The plates were then incubated for 24 hours and the lysis areas measured with a ruler.

Gram+ bacteria = settings: cited from earlier work
Gram-bacteria = settings: cited from earlier work

SMILES	calculated MIC (Enterococcus faecalis)	MIC (concentration corresponding to the elimination of 90% of the bacteria) (Gram+ bacteria)	MIC (concentration corresponding to the elimination of 90% of the bacteria) (Gram-bacteria)
N=C(NCCCCCCNC(=N)NC(=N)Nc1ccc(Cl)cc1)NC(=N)Nc1ccc(Cl)cc1.O=C(O)[C@H](O)[C@@H](O)[C@H](O)[C@H](O)CO.O=C(O)[C@H](O)[C@@H](O)[C@H](O)[C@H](O)CO [chlorhexidine digluconate]	15.5 µg/mL	–	–
[H]/N=C(\N/C(=N/[H])NCCCCCCNC(=N)NC(=N)Nc1ccc(Cl)cc1)Nc1ccc(Cl)cc1 [chlorhexidine]	–	22 µg/mL	40 µg/mL
